Measured values as given in patent US20180194762A1 (Pharmacyclics LLC, priority 2017, published 2018).
Where two headings read alike, the source gives them in different places.

Legend:
Type in all cases: biochemical
Btk = target: T1, Btk (Homo sapiens, UniProt Q06187); test: Btk in vitro inhibitory activity (one of Method A TR-FRET, Method B electrophoretic mobility shift, Method C radiometric filter binding)
T1 construct: purified from insect cells as a full-length construct containing a N-terminal 6X-His tag; His6 (N); made in house; host or cells: insect cells (Method C)
Summary of the method: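 Method A: TR-FRET with 0.5 nM Btk at [ATP]=Km, EDTA-quenched, 665/615 nm ratio; Ki(app) converted to IC50. Method B: 1 nM full-length His6 human BTK, 1 μM FAM peptide, pH 7.5, mobility-shift product/sum ratio, 12-point 4-parameter fit. Method C: radiometric filter binding, 8 nM His-tagged BTK, 0.2 mg/mL poly-Glu-Tyr.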

TEC = target: T2, TEC (Homo sapiens, UniProt P42680); test: Inhibition of a panel of kinases (in vitro HotSpot kinase assay, 33P-ATP, 1 μM ATP); details: for IC50: HotSpot kinase assay, 1 μM ATP; for TEC/Btk: ratio of TEC IC50 to Btk IC50 (selectivity)
T2 sequence (P42680 1-631): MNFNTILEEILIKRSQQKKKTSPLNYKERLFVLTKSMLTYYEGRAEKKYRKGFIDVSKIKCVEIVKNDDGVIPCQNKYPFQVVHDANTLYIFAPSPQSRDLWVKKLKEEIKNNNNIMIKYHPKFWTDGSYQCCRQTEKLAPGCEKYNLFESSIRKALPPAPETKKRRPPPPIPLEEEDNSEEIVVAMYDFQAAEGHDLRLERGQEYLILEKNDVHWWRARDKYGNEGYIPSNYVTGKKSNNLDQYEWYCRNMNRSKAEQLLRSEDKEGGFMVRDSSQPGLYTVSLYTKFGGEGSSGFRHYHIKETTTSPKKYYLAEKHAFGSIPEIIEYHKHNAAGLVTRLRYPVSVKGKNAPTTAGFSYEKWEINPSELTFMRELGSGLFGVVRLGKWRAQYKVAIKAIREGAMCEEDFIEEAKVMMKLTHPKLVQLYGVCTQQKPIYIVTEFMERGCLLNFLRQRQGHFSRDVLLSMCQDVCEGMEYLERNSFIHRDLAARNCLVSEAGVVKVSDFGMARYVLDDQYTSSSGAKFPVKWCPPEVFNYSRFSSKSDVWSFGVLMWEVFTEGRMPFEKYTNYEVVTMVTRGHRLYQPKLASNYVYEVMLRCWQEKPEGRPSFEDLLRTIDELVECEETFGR
Summary of the method: (§1)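 Purified kinase enzymes were incubated with an appropriate substrate and 33P-labelled ATP at 1 μM ATP. Inhibition was measured radiometrically from incorporation of the 33P label.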

panel of kinases = target: T3, panel of kinases (Homo sapiens, UniProt P51813); test: Inhibition of a panel of kinases (in vitro HotSpot kinase assay, 33P-ATP, 1 μM ATP), other kinases; details: BMX wild-type, read-out: BMX-WT IC50
T3 sequence (P51813 1-675): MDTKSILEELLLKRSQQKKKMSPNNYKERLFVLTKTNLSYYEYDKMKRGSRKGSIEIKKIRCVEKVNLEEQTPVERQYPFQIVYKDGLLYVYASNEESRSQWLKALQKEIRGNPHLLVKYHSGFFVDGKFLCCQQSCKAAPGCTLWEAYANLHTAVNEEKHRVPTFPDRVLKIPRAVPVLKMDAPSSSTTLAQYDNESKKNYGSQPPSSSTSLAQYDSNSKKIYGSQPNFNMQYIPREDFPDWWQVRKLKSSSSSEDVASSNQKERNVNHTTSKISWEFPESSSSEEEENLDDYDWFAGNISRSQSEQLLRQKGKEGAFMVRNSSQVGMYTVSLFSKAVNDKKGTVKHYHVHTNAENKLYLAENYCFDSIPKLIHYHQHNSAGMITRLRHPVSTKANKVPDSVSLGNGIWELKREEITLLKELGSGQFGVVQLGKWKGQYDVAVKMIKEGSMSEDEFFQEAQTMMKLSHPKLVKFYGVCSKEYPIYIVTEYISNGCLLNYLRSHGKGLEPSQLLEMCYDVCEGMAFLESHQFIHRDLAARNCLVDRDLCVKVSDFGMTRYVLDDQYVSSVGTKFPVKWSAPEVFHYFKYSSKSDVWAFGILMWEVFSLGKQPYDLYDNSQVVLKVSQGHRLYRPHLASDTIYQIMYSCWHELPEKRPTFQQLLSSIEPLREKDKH
Summary of the method: as §1

[1] = method is one of A, B or C, not stated which, read-out: IC50 values against Btk
[2] = wild-type Btk, read-out: Btk-WT IC50

T1 sequence (Q06187 whole entry): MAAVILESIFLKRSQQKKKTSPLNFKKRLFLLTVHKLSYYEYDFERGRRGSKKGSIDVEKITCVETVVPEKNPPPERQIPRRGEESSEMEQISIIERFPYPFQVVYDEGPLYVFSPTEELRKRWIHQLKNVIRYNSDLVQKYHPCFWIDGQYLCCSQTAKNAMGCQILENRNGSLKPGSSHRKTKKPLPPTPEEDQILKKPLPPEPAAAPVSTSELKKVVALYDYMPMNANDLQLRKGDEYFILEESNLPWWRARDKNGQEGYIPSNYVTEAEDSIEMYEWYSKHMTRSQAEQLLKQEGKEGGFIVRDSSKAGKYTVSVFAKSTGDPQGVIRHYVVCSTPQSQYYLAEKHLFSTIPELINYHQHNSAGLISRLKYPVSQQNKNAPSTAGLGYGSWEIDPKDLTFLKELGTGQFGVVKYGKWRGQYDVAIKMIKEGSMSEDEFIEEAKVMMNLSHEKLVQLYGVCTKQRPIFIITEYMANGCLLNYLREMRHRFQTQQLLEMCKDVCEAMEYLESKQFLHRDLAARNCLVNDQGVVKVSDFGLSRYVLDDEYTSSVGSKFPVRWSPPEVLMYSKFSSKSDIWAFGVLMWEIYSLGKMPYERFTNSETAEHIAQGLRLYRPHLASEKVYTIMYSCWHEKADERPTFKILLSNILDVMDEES

Q: What does the source list for `C=CC(=O)N1CCC[C@@H](Nc2n[nH]c3nccc(-c4ccc(CNC(=O)c5cc(C(C)C)on5)c(F)c4)c23)[C@H]1C` [Example 173, N-{[2-fluoro-4-(3-{[(2R,3R)-2-methyl-1-(prop-2-enoyl)piperidin-3-yl]amino}-1H-pyrazolo[3,4-b]pyridin-4-yl)phenyl]methyl}-5-(propan-2-yl)-1,2-oxazole-3-carboxamide]?
A: IC50 (Btk; [1]): < 10 nM; IC50 (Btk; [2]): 0.104 nM; IC50 (TEC): 9 nM; TEC/Btk (TEC): 83; IC50 (panel of kinases): 6 nM

Q: Which results are given for `CC(C)(C)c1nc(C(=O)NCc2ccc(-c3ccnc4[nH]nc(N[C@@H]5CCNC5)c34)cc2)no1` [Example 174, 5-tert-butyl-N-{[4-(3-{[(3R)-pyrrolidin-3-yl]amino}-1H-pyrazolo[3,4-b]pyridin-4-yl)phenyl]methyl}-1,2,4-oxadiazole-3-carboxamide]?
A: IC50 (Btk; [2]): 32.7 nM; IC50 (TEC): > 10000 nM; TEC/Btk (TEC): >100; IC50 (panel of kinases): > 10000 nM

Q: With `C=CC(=O)N1CC[C@@H](Nc2n[nH]c3nccc(-c4ccc(CNC(=O)c5noc(C(C)(C)C)n5)cc4)c23)C1` [Example 175, 5-tert-butyl-N-{[4-(3-{[(3R)-1-(prop-2-enoyl)pyrrolidin-3-yl]amino}-1H-pyrazolo[3,4-b]pyridin-4-yl)phenyl]methyl}-1,2,4-oxadiazole-3-carboxamide] as the compound, how does the IC50 (Btk; [1]) read?
A: < 10 nM

Q: And the IC50 (Btk; [2])?
A: 0.189 nM

Q: What about the IC50 (TEC) of the same compound?
A: 55 nM

Q: What about the TEC/Btk (TEC) of the same compound?
A: 289

Q: What about the IC50 (panel of kinases) of the same compound?
A: 201 nM

Q: Which IC50 (Btk; [1]) does the source give for `C=CC(=O)N1CC[C@@H](Nc2n[nH]c3nccc(-c4ccc(CNC(=O)c5cnc(C(C)C)o5)c(F)c4)c23)C1` [Example 176, N-{[2-fluoro-4-(3-{[(3R)-1-(prop-2-enoyl)pyrrolidin-3-yl]amino}-1H-pyrazolo[3,4-b]pyridin-4-yl)phenyl]methyl}-2-(propan-2-yl)-1,3-oxazole-5-carboxamide] here?
A: < 10 nM

Q: And the IC50 (Btk; [2])?
A: 1.49 nM

Q: And the IC50 (TEC)?
A: 149 nM

Q: What about the TEC/Btk (TEC) of the same compound?
A: 100

Q: And the IC50 (panel of kinases)?
A: 146 nM

Q: What does the source list for `C=CC(=O)N1CC[C@@H](Nc2n[nH]c3nccc(-c4ccc(CNC(=O)c5cnc(N(C)C)o5)c(F)c4)c23)C1` [Example 177, 2-(dimethylamino)-N-{[2-fluoro-4-(3-{[(3R)-1-(prop-2-enoyl)pyrrolidin-3-yl]amino}-1H-pyrazolo[3,4-b]pyridin-4-yl)phenyl]methyl}-1,3-oxazole-5-carboxamide]?
A: IC50 (Btk; [1]): < 10 nM; IC50 (Btk; [2]): 3.91 nM; IC50 (TEC): 99 nM; TEC/Btk (TEC): 25; IC50 (panel of kinases): 43 nM

Q: What does the source list for `CC(C)(C)c1noc(C(=O)NCc2ccc(-c3ccnc4[nH]nc(N5CCC(N)CC5)c34)cc2F)n1` [Example 178, N-({4-[3-(4-aminopiperidin-1-yl)-1H-pyrazolo[3,4-b]pyridin-4-yl]-2-fluorophenyl}methyl)-3-tert-butyl-1,2,4-oxadiazole-5-carboxamide]?
A: IC50 (Btk; [1]): < 10 nM; IC50 (Btk; [2]): 0.598 nM; IC50 (TEC): 722 nM; TEC/Btk (TEC): 1207; IC50 (panel of kinases): 1180 nM

Q: What does the source list for `C=CC(=O)NC1CCN(c2n[nH]c3nccc(-c4ccc(CNC(=O)c5nc(C(C)(C)C)no5)c(F)c4)c23)CC1` [Example 179, 3-tert-butyl-N-[(2-fluoro-4-{3-[4-(prop-2-enamido)piperidin-1-yl]-1H-pyrazolo[3,4-b]pyridin-4-yl}phenyl)methyl]-1,2,4-oxadiazole-5-carboxamide]?
A: IC50 (Btk; [1]): < 10 nM; IC50 (Btk; [2]): 0.0959 nM; IC50 (TEC): 220 nM; TEC/Btk (TEC): 2294; IC50 (panel of kinases): 305 nM

Q: With `CC(C)(C)c1nc(C(=O)NCc2ccc(-c3ccnc4[nH]nc(N[C@@H]5CCNC5)c34)cc2F)co1` [Example 180, 2-tert-butyl-N-{[2-fluoro-4-(3-{[(3R)-pyrrolidin-3-yl]amino}-1H-pyrazolo[3,4-b]pyridin-4-yl)phenyl]methyl}-1,3-oxazole-4-carboxamide] as the compound, how does the IC50 (Btk; [2]) read?
A: 23.8 nM

Q: And the IC50 (TEC)?
A: 7180 nM

Q: What about the TEC/Btk (TEC) of the same compound?
A: 302

Q: What about the IC50 (panel of kinases) of the same compound?
A: > 10000 nM

Q: With `CC(C)c1noc(C(=O)NCc2ccc(-c3ccnc4[nH]nc(N5CC[C@@H](N)C5)c34)cc2F)n1` [Example 181, N-[(4-{3-[(3R)-3-aminopyrrolidin-1-yl]-1H-pyrazolo[3,4-b]pyridin-4-yl}-2-fluorophenyl)methyl]-3-(propan-2-yl)-1,2,4-oxadiazole-5-carboxamide] as the compound, how does the IC50 (Btk; [2]) read?
A: 6.04 nM

Q: What about the IC50 (TEC) of the same compound?
A: 1000 nM

Q: What about the TEC/Btk (TEC) of the same compound?
A: 166

Q: And the IC50 (panel of kinases)?
A: 761 nM

Q: How did the IC50 (Btk; [2]) turn out when `CC(C)c1cc(C(=O)NCc2ccc(-c3ccnc4[nH]nc(N5CC[C@@H](N)C5)c34)cc2F)on1` [Example 182, N-[(4-{3-[(3R)-3-aminopyrrolidin-1-yl]-1H-pyrazolo[3,4-b]pyridin-4-yl}-2-fluorophenyl)methyl]-3-(propan-2-yl)-1,2-oxazole-5-carboxamide] was run?
A: 14.5 nM

Q: What about the IC50 (TEC) of the same compound?
A: 2610 nM

Q: And the TEC/Btk (TEC)?
A: 180

Q: And the IC50 (panel of kinases)?
A: 1320 nM

Q: What does the source list for `C=CC(=O)N[C@@H]1CCN(c2n[nH]c3nccc(-c4ccc(CNC(=O)c5cc(C(C)C)no5)c(F)c4)c23)C1` [Example 184, N-{[2-fluoro-4-(3-{(3R)-3-[(prop-2-enoyl)amino]pyrrolidin-1-yl}-1H-pyrazolo[3,4-b]pyridin-4-yl)phenyl]methyl}-3-(propan-2-yl)-1,2-oxazole-5-carboxamide]?
A: IC50 (Btk; [2]): 0.0776 nM; IC50 (TEC): 33.4 nM; TEC/Btk (TEC): 430; IC50 (panel of kinases): 30.7 nM

Q: `CC(=O)N[C@@H]1CCN(c2n[nH]c3nccc(-c4ccc(CNC(=O)c5cc(C(C)C)no5)c(F)c4)c23)C1` [Example 185, N-[(4-{3-[(3R)-3-acetamidopyrrolidin-1-yl]-1H-pyrazolo[3,4-b]pyridin-4-yl}-2-fluorophenyl)methyl]-3-(propan-2-yl)-1,2-oxazole-5-carboxamide] was tested. Which IC50 (Btk; [2]) did it give?
A: 7.43 nM

Q: What about the IC50 (TEC) of the same compound?
A: 2240 nM

Q: And the TEC/Btk (TEC)?
A: 301

Q: What about the IC50 (panel of kinases) of the same compound?
A: 1560 nM

Q: How did the IC50 (Btk; [2]) turn out when `C[C@@H](NC(=O)c1nc(C(C)(C)C)no1)c1ccc(-c2ccnc3[nH]nc(N4CCC(N)CC4)c23)cc1F` [Example 188, N-[(1R)-1-{4-[3-(4-aminopiperidin-1-yl)-1H-pyrazolo[3,4-b]pyridin-4-yl]-2-fluorophenyl}ethyl]-3-tert-butyl-1,2,4-oxadiazole-5-carboxamide] was run?
A: 0.267 nM

Q: And the IC50 (TEC)?
A: 802 nM

Q: What about the TEC/Btk (TEC) of the same compound?
A: 3004

Q: And the IC50 (panel of kinases)?
A: 1520 nM

Q: What does the source list for `C[C@@H](NC(=O)c1noc(C(C)(C)C)n1)c1ccc(-c2ccnc3[nH]nc(N[C@@H]4CC[C@H](C)N(C(=O)N(C)C)C4)c23)cc1F` [Example 191, (2S,5R)-5-{[4-(4-{(1R)-1-[(5-tert-butyl-1,2,4-oxadiazole-3-carbonyl)amino]ethyl}-3-fluorophenyl)-1H-pyrazolo[3,4-b]pyridin-3-yl]amino}-N,N,2-trimethylpiperidine-1-carboxamide]?
A: IC50 (Btk; [2]): 0.329 nM; IC50 (TEC): 340 nM; TEC/Btk (TEC): 1033; IC50 (panel of kinases): 310 nM

Q: Which results are given for `C[C@@H](NC(=O)c1cc(C(C)(C)O)on1)c1ccc(-c2ccnc3[nH]nc(N[C@@H]4CC[C@H](C)N(C(=O)N(C)C)C4)c23)cc1F` [Example 192, (2S,5R)-5-[(4-{3-fluoro-4-[(1R)-1-{[5-(2-hydroxypropan-2-yl)-1,2-oxazole-3-carbonyl]amino}ethyl]phenyl}-1H-pyrazolo[3,4-b]pyridin-3-yl)amino]-N,N,2-trimethylpiperidine-1-carboxamide]?
A: IC50 (Btk; [2]): 28.6 nM; IC50 (TEC): 3010 nM; TEC/Btk (TEC): 105; IC50 (panel of kinases): 3130 nM
